What was measured:
IL6 = assay: Western blot of IL6 in C6 microglia; assay type: cell-based; conditions: LPS 500 ng/mL, Aβ 5 μM, compound 10 μM; changes statistically insignificant
Experimental: Western blot analysis was performed to analyse the changes in the protein levels from cell lysates. SH-SY5Y and C6 cells were cultured to 80% confluence in T25 flask, trypsinised and seed into 12 well plate. The cells were cultured for 30 h and then treated with LPS (500 ng/mL) in low serum media for 6 h. Then the cells were treated with Aβ42 (5 μM) alone and with NMIs (M3) (10 μM) for 18 h. The cells were harvested by trypsinisation and the protein was extracted in RIPA lysis buffer with protease inhibitor cocktail (1×). Briefly cells were washed with dPBS and lysed in […] of RIPA lysis buffer with gentle shaking in 4° C. for 30 min. Then the cells were centrifuged at 16000 g for 20 min and the supernatant containing protein was collected and quantified by Bradford assay. The protein lysate was subjected to SDS-PAGE (12% resolving gel) and transferred to PVDF membrane. The blot paper was blocked with 5% skim milk powder for 1 h at room temperature and then washed thrice with TBST. The blots were incubated with primary antibodies for 20 h at 4° C. The blots were washed thrice with TBST for 5 min and then incubated with anti-rabbit HRP-conjugated secondary antibodies for 1 h at room temperature. […] All the western blots were quantified by using ImageJ, data was plotted and analysed by GraphPad prism5. […]

[1] = target: T1, Aβ in the presence of Zn (II) (Homo sapiens, UniProt P05067); assay: Zn-dependent Aβ aggregation, native PAGE and western blot; assay type: biochemical; conditions: Aβ 10 μM, Zn (II) 20 μM, NMIs 20 μM, 37° C., 48 h
T1 construct: is a 42 amino acid proteolytic product from the amyloid precursor protein; purchased Invitrogen
Experimental: The samples were prepared by incubating Aβ42 with specific concentration of NMI compounds of present disclosure and metal ions for 48 h and then subjected to 6% native polyacrylamide gel electrophoresis (Native-PAGE) in tris-glycine buffer. The lower molecular weight aggregates permeabilized through the gel and resolved in the gel. Higher molecular aggregates stuck in the upper part of wells and potentially carried in gel. Then the protein was transferred to PVDF membrane for 4 h at cold condition maintained using ice cold transfer buffer and immersing the transfer apparatus in ice. Then the blots were continued similar to dot blots.
The absorbance and fluorescence spectroscopy studies together with mass spectrometry data confirmed the selective Cu (II) or Zn (II) chelation property of M1 and M3. […] Aβ (10 μM) was incubated in the presence of Cu (II) or Zn (II) (20 μM) with NMIs at 37° C. for 48 h and the samples were subjected to native PAGE and western blot analysis. […] Modulation of Zn-dependent Aβ aggregation by M4 was attributed to its two Zn (II) chelation centres. M3 with dopamine and DPA moieties effectively modulated both Cu (II) and Zn (II)-dependent Aβ aggregation. The effect of NMIs on the morphological outcome of metal-dependent Aβ aggregation was visualized by AFM imaging (FIGS. 1E and 1F). Aβ in the presence of Cu (II) and Zn (II) formed dense and thick fibrils.

SH-SY5Y cells [2] = assay: Cell rescue from Zn (II)-dependent Aβ toxicity (MTT); assay type: cell-based; conditions: Aβ 10 μM, Zn (II) 20 μM, NMIs 20 μM, 30 h; without compound ~61%
Experimental: (§1) Cell rescue from Aβ toxicity by NMIs were assessed in SH-SY5Y cells. The cells were seeded into 96 well plate at cell density of 25,000 cells per well and after 24 h the media was replaced with DMEM-F12 with low serum (2.5% FBS). After 6 h, cells were treated with Aβ (10 μM) alone and with NMIs (20 μM) in low serum media. Different concentrations of compound (10, 20 and 50 μM) were used to treat cells. For metal dependent studies, Aβ (10 μM) with metals (20 μM) in the absence and presence of NMIs (20 μM) was treated. The cells were incubated for 30 h and MTT assay was performed to calculate the percentage cell viability.
(§2) Further, the effect of concentration of compounds of the present disclosure on the cell rescue was assessed. […] The ability of NMIs to rescue cells from metal-dependent Aβ toxicity were assessed in the presence of Cu (II) and Zn (II). Cells were treated with Aβ (10 μM) along with metal ions (20 μM) and NMIs (20 μM) for 30 h. Aβ in the presence of Cu (II) reduced cell viability to ˜62% and M3 treatment had rescued cells with viability to 85% (FIG. 12C). Aβ with Zn (II) viability reduced to ˜61% and M3 treatment rescued cells by improving the viability to ˜79% (FIG. 12D). […] These in-cellulo experiments confirmed the ability of M3 to effectively rescue neuronal cells from metal-independent and dependent Aβ toxicity.

SH-SY5Y cells [3] = assay: Cell rescue from Cu (II)-dependent Aβ toxicity (MTT); assay type: cell-based
Experimental: as §1, §2

Nrf2 = Nrf2 localisation by indirect immunofluorescence; assay type: cell-based; conditions: Aβ treated SH-SY5Y cells
Experimental: Cells were cultured in confocal dishes up to 70% confluence and then treated with Aβ alone and with NMIs (M3), and subjected to immunofluorescence. The cells were washed twice with dPBS and then fixed with 4% paraformaldehyde for 15 min. The cells were then washed twice with dPBS for 5 min followed by treatment with permeabilization buffer (dPBS with 0.1% Triton X-100) for 10 min. The permeabilization buffer was aspirated and rinses with dPBS twice for 5 min. The samples were blocked with 10% goat serum in dPBS for 30 min at room temperature. The blocking solution was aspirated and then was treated with primary antibody (Nrf2/Iba1) with desired dilution in 4° C. with gentle shaking overnight. The samples were then washed with dPBS thrice for 5 min each and treated with Alexa Fluor-488 conjugated secondary antibody for 1 h in room temperature. The cells were washed with dPBS thrice and counterstain with DAPI (1 μM) for 10 min and imaged using confocal microscope.
M3 with in vitro antioxidant activity and in cellulo ROS quenching effect was expected to alleviate oxidative stress and modulate Nrf2 response. The effect of M3 on Nrf2 localisation in Aβ treated SH-SY5Y cells were assessed by indirect immunofluorescence staining study. […]

T1 sequence (P05067 672-713 limits assumed): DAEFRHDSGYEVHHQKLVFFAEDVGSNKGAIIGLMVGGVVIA

In the case of `O=C1c2cccc3c(N(Cc4ccccn4)Cc4ccccn4)ccc(c23)C(=O)N1CCc1ccc(O)c(O)c1` [M3, 6-(bis(pyridin-2-ylmethyl)amino)-2-(3,4-dihydroxyphenethyl)-1H-benzo[de]isoquinoline-1,3(2H)-dione], the IL6 level (IL6) is reported as “reduced”, the “Zn-dependent Aβ aggregation” value [1] is reported as “reduce Zn-dependent Aβ aggregation” and the cell viability (SH-SY5Y cells [2]) is reported as about 79%. The cell viability (SH-SY5Y cells [3]; Aβ 10 μM, Cu (II) 20 μM, NMIs 20 μM, 30 h, without compound ~62%) was 85%, the cell viability (SH-SY5Y cells [3]; Cu (II)-dependent Aβ toxicity, higher concentration 50 µM, FIG. 13) was 86% and the “translocation of Nrf2 to the nucleus” value (Nrf2) was “reduced the translocation of Nrf2 to the nucleus”.
